Laboratory results: patent US4683240A, “Pharmaceutical composition containing an imidazolidinetrione derivative or pharmaceutically acceptable salt thereof” (Nippon Zoki Pharmaceutical Co., Ltd., priority 1985, dated 1987)

test system: Serum Free Fatty Acid; assay: Hypolipidemic effect: serum free fatty acid; assay type: in vivo, rat (Wistar-strain); settings: 100 mg/kg oral, 2 h; control 0.53 ± 0.03 (compounds 2-12), 0.52 ± 0.03 (compounds 15-24)
Protocol: (§1) The test drugs suspended in 0.5% aqueous C.M.C. solution were orally administered to groups of 8 Wistar-strain male rats (weighing about 185 g) which were fasted for 18 to 20 hours. 2 hours later, the serum was obtained in the same manner described in (2). Serum triglyceride was measured according to the GPO-p-chlorophenol colorimetric determination [Richard W. Spayd et al., Clinical Chemistry, 24, 1343 (1978)], serum free fatty acid was measured according to the Acyl CoA Synthetase-Acyl CoA Oxidase method [Shimizu S. et al., Biochem. Biophys. Res. Commun., 91, 108 (1979)], free fatty acid was measured according to the enzymatic method [Charles C. Allain et al., Clin. Chem., 20, No. 4, 470 (1974)] and total cholesterol was measured according to the enzymatic method [Takayama M. et al., Clinica Chimica Acta, 79, 93 (1977)]. Asterisks indicate significant differences (*: p<0.05, **: p<00.01, ***: p<0.001) from the control.

SMILES | Serum Free Fatty Acid Level
CN1C(=O)NC(=O)C1=O [compound 2, 1-methylimidazolidinetrione] | 0.25 ± 0.03 mEq/l
CN1C(=O)C(=O)N(C)C1=O [compound 12, 1,3-dimethylimidazolidinetrione] | 0.37 ± 0.03 mEq/l
O=C1NC(=O)N(Cc2ccccc2)C1=O [compound 15, 1-benzylimidazolidinetrione] | 0.44 ± 0.02 mEq/l
O=C1NC(=O)N(Cc2ccc(F)cc2)C1=O [compound 18, 1-(4-fluorobenzyl)imidazolidinetrione] | 0.42 ± 0.02 mEq/l
Cc1ccccc1CN1C(=O)NC(=O)C1=O [compound 24, 1-(2-methylbenzyl)imidazolidinetrione] | 0.45 ± 0.01 mEq/l

same assay, conditions: Rattus norvegicus; 100 mg/kg oral, 2 h; vs control; read-out: Serum Free Fatty Acid Decrease

SMILES | inhibition in vivo at 100 mg/kg
CN1C(=O)NC(=O)C1=O [compound 2, 1-methylimidazolidinetrione] | 52.8%
CN1C(=O)C(=O)N(C)C1=O [compound 12, 1,3-dimethylimidazolidinetrione] | 30.2%
O=C1NC(=O)N(Cc2ccccc2)C1=O [compound 15, 1-benzylimidazolidinetrione] | 15.4%
O=C1NC(=O)N(Cc2ccc(F)cc2)C1=O [compound 18, 1-(4-fluorobenzyl)imidazolidinetrione] | 19.2%
Cc1ccccc1CN1C(=O)NC(=O)C1=O [compound 24, 1-(2-methylbenzyl)imidazolidinetrione] | 13.5%

test system: not listed separately; assay: Acute toxicity test (oral); parameters: species or system mouse (ddY-strain); settings: mouse, in vivo, male ddY mice, fasted 20 h, deaths over 7 days
Protocol: The test compounds of the present invention suspended in 0.5% aqueous solution of carboxymethylcellulose (C.M.C.) were orally administered to groups of 4 to 6 ddY-strain male mice (weighing about 19 g) which had fasted for 20 hours. The lethal dose was determined by the number of deaths for 7 days thereafter.

SMILES | LD50 at 168 h
CN1C(=O)NC(=O)C1=O [compound 2, 1-methylimidazolidinetrione] | ~900 mg/kg
CCN1C(=O)NC(=O)C1=O [compound 3, 1-ethylimidazolidinetrione] | ~700 mg/kg
O=C1NC(=O)N(Cc2ccccc2)C1=O [compound 15, 1-benzylimidazolidinetrione] | ~1000 mg/kg

test system: Serum Triglyceride; assay: Hypolipidemic effect: serum triglyceride; assay type: in vivo, rat (Wistar-strain); settings: 100 mg/kg oral, 2 h; control 65 ± 5 (compounds 2-12), 57 ± 4 (compounds 15-29)
Protocol: as §1

SMILES | Serum Triglyceride Level
CN1C(=O)NC(=O)C1=O [compound 2, 1-methylimidazolidinetrione] | 22 ± 1 mg/dL
CN1C(=O)C(=O)N(C)C1=O [compound 12, 1,3-dimethylimidazolidinetrione] | 35 ± 3 mg/dL
O=C1NC(=O)N(Cc2ccccc2)C1=O [compound 15, 1-benzylimidazolidinetrione] | 30 ± 1 mg/dL
O=C1NC(=O)N(Cc2ccc(F)cc2)C1=O [compound 18, 1-(4-fluorobenzyl)imidazolidinetrione] | 30 ± 1 mg/dL
Cc1ccccc1CN1C(=O)NC(=O)C1=O [compound 24, 1-(2-methylbenzyl)imidazolidinetrione] | 30 ± 1 mg/dL

same assay, conditions: Rattus norvegicus; 100 mg/kg oral, 2 h; vs control; read-out: Serum Triglyceride Decrease

SMILES | inhibition in vivo at 100 mg/kg
CN1C(=O)NC(=O)C1=O [compound 2, 1-methylimidazolidinetrione] | 66.2%
CN1C(=O)C(=O)N(C)C1=O [compound 12, 1,3-dimethylimidazolidinetrione] | 46.2%
O=C1NC(=O)N(Cc2ccccc2)C1=O [compound 15, 1-benzylimidazolidinetrione] | 47.4%
O=C1NC(=O)N(Cc2ccc(F)cc2)C1=O [compound 18, 1-(4-fluorobenzyl)imidazolidinetrione] | 47.4%
Cc1ccccc1CN1C(=O)NC(=O)C1=O [compound 24, 1-(2-methylbenzyl)imidazolidinetrione] | 47.4%

test system: Serum Phospholipid; assay: Hypolipidemic effect: serum phospholipid; assay type: in vivo, rat (Wistar-strain); settings: 100 mg/kg oral, 2 h; control 79 ± 2 (compounds 2-12), 72 ± 2 (compounds 15-29)
Protocol: as §1

SMILES | Serum Phospholipid Level
CN1C(=O)NC(=O)C1=O [compound 2, 1-methylimidazolidinetrione] | 59 ± 1 mg/dL
CN1C(=O)C(=O)N(C)C1=O [compound 12, 1,3-dimethylimidazolidinetrione] | 61 ± 2 mg/dL
O=C1NC(=O)N(Cc2ccccc2)C1=O [compound 15, 1-benzylimidazolidinetrione] | 52 ± 1 mg/dL
O=C1NC(=O)N(Cc2ccc(F)cc2)C1=O [compound 18, 1-(4-fluorobenzyl)imidazolidinetrione] | 56 ± 1 mg/dL
Cc1ccccc1CN1C(=O)NC(=O)C1=O [compound 24, 1-(2-methylbenzyl)imidazolidinetrione] | 56 ± 1 mg/dL

same assay, conditions: Rattus norvegicus; 100 mg/kg oral, 2 h; vs control; read-out: Serum Phospholipid Decrease

SMILES | inhibition in vivo at 100 mg/kg
CN1C(=O)NC(=O)C1=O [compound 2, 1-methylimidazolidinetrione] | 25.3%
CN1C(=O)C(=O)N(C)C1=O [compound 12, 1,3-dimethylimidazolidinetrione] | 22.8%
O=C1NC(=O)N(Cc2ccccc2)C1=O [compound 15, 1-benzylimidazolidinetrione] | 27.8%
O=C1NC(=O)N(Cc2ccc(F)cc2)C1=O [compound 18, 1-(4-fluorobenzyl)imidazolidinetrione] | 22.2%
Cc1ccccc1CN1C(=O)NC(=O)C1=O [compound 24, 1-(2-methylbenzyl)imidazolidinetrione] | 22.2%

test system: Blood Glucose; assay: Hypoglycemic effect in glucose-loaded fasted rats (blood glucose); assay type: in vivo, rat (Wistar-strain); settings: Rattus norvegicus; Table 2; 12.5 mg/kg oral, 2 h; vs control; read-out: Blood Glucose Decrease
Protocol: Groups of 7 Wistar-strain male rats (weighing about 200 g) which were fasted for 18 hours were used for measurement of hypoglycemic effect according to the modified method by Dulin et al. [Dulin, W. L. et al., Proc. Soc. Expl. Med., 107, 245 (1961)]. That is, 0.5 ml/100 g of 20% aqueous solution of glucose was subcutaneously administered to the backs of rats to prevent a decrease in blood glucose level because of the fasting. Immediately thereafter the test drug suspended in 0.5% aqueous C.M.C. solution was orally given, and 2 hours later, the animals underwent laparotomy under pentobarbital anesthesia, then blood was drawn from the vena cava. The obtained blood sample was allowed to stand for 30 minutes to complete the coagulation and was centrifuged to obtain the serum. Blood sugar level was measured according to the mutalotase GOD method [Trinder, Ann. Clin. Biochem., 6, 24 […]]. Asterisks indicate significant differences (*: p<0.05, **: p<0.01, ***: p<0.001) from the control.

SMILES | inhibition in vivo at 12.5 mg/kg
CN1C(=O)NC(=O)C1=O [compound 2, 1-methylimidazolidinetrione] | 18%

same assay, conditions: Rattus norvegicus; Table 2; 25 mg/kg oral, 2 h; vs control; read-out: Blood Glucose Decrease

SMILES | inhibition in vivo at 25 mg/kg
CN1C(=O)NC(=O)C1=O [compound 2, 1-methylimidazolidinetrione] | 25.6%

same assay, conditions: Rattus norvegicus; Table 2; 50 mg/kg oral, 2 h; vs control; read-out: Blood Glucose Decrease

SMILES | inhibition in vivo at 50 mg/kg
CN1C(=O)NC(=O)C1=O [compound 2, 1-methylimidazolidinetrione] | 31.6%

same assay, conditions: Rattus norvegicus; Table 2; 100 mg/kg oral, 2 h; vs control; read-out: Blood Glucose Decrease

SMILES | inhibition in vivo at 100 mg/kg
CN1C(=O)NC(=O)C1=O [compound 2, 1-methylimidazolidinetrione] | 25.6%
CCN1C(=O)NC(=O)C1=O [compound 3, 1-ethylimidazolidinetrione] | 24.8%
CN1C(=O)C(=O)N(C)C1=O [compound 12, 1,3-dimethylimidazolidinetrione] | 15%

same assay, conditions: Rattus norvegicus; Table 3; 100 mg/kg oral, 2 h; vs control; read-out: Blood Glucose Decrease

SMILES | inhibition in vivo at 100 mg/kg
O=C1NC(=O)N(Cc2ccccc2)C1=O [compound 15, 1-benzylimidazolidinetrione] | 15.8%
O=C1NC(=O)N(Cc2ccc(F)cc2)C1=O [compound 18, 1-(4-fluorobenzyl)imidazolidinetrione] | 20.3%
Cc1ccccc1CN1C(=O)NC(=O)C1=O [compound 24, 1-(2-methylbenzyl)imidazolidinetrione] | 12.8%

same assay, conditions: Table 2; 12.5 mg/kg oral, 2 h; control 133 ± 6

SMILES | Blood Glucose Level
CN1C(=O)NC(=O)C1=O [compound 2, 1-methylimidazolidinetrione] | 109 ± 5 mg/dL

same assay, conditions: Table 2; 25 mg/kg oral, 2 h; control 133 ± 6

SMILES | Blood Glucose Level
CN1C(=O)NC(=O)C1=O [compound 2, 1-methylimidazolidinetrione] | 99 ± 2 mg/dL

same assay, conditions: Table 2; 50 mg/kg oral, 2 h; control 133 ± 6

SMILES | Blood Glucose Level
CN1C(=O)NC(=O)C1=O [compound 2, 1-methylimidazolidinetrione] | 91 ± 4 mg/dL

same assay, conditions: Table 2; 100 mg/kg oral, 2 h; control 133 ± 6

SMILES | Blood Glucose Level
CN1C(=O)NC(=O)C1=O [compound 2, 1-methylimidazolidinetrione] | 99 ± 5 mg/dL
CCN1C(=O)NC(=O)C1=O [compound 3, 1-ethylimidazolidinetrione] | 100 ± 2 mg/dL
CN1C(=O)C(=O)N(C)C1=O [compound 12, 1,3-dimethylimidazolidinetrione] | 115 ± 4 mg/dL

same assay, conditions: Table 3; 100 mg/kg oral, 2 h; control 133 ± 4

SMILES | Blood Glucose Level
O=C1NC(=O)N(Cc2ccccc2)C1=O [compound 15, 1-benzylimidazolidinetrione] | 112 ± 3 mg/dL
O=C1NC(=O)N(Cc2ccc(F)cc2)C1=O [compound 18, 1-(4-fluorobenzyl)imidazolidinetrione] | 106 ± 3 mg/dL
Cc1ccccc1CN1C(=O)NC(=O)C1=O [compound 24, 1-(2-methylbenzyl)imidazolidinetrione] | 116 ± 3 mg/dL

test system: Total Serum Cholesterol; assay: Hypolipidemic effect: total serum cholesterol; assay type: in vivo, rat (Wistar-strain); settings: 100 mg/kg oral, 2 h; control 44 ± 2 (compounds 4-12), 41 ± 1 (compounds 15-29)
Protocol: as §1

SMILES | Total Serum Cholesterol Level
CN1C(=O)C(=O)N(C)C1=O [compound 12, 1,3-dimethylimidazolidinetrione] | 39 ± 1 mg/dL
O=C1NC(=O)N(Cc2ccccc2)C1=O [compound 15, 1-benzylimidazolidinetrione] | 33 ± 1 mg/dL
O=C1NC(=O)N(Cc2ccc(F)cc2)C1=O [compound 18, 1-(4-fluorobenzyl)imidazolidinetrione] | 34 ± 1 mg/dL
Cc1ccccc1CN1C(=O)NC(=O)C1=O [compound 24, 1-(2-methylbenzyl)imidazolidinetrione] | 36 ± 1 mg/dL

same assay, conditions: Rattus norvegicus; 100 mg/kg oral, 2 h; vs control; read-out: Total Serum Cholesterol Decrease

SMILES | inhibition in vivo at 100 mg/kg
CN1C(=O)C(=O)N(C)C1=O [compound 12, 1,3-dimethylimidazolidinetrione] | 11.4%
O=C1NC(=O)N(Cc2ccccc2)C1=O [compound 15, 1-benzylimidazolidinetrione] | 19.5%
O=C1NC(=O)N(Cc2ccc(F)cc2)C1=O [compound 18, 1-(4-fluorobenzyl)imidazolidinetrione] | 17.1%
Cc1ccccc1CN1C(=O)NC(=O)C1=O [compound 24, 1-(2-methylbenzyl)imidazolidinetrione] | 12.2%
